From the supplement of paper PMC10307832

Tests used:
Assay in all cases: relative viability (nuclei count vs DMSO), 5 days (fraction); higher = more cells survive
COR-L 105 = tested on: COR-L 105
Outline: (§1)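 Relative viability equals treated-well nuclei counts divided by vehicle-well nuclei counts. Counts came from 4× images of lung cancer cell lines grown in 1536-well plates for 5 days after pin-tool dosing on the day after seeding. Dosing used one drug alone or a fixed anchor-drug dose plus five library-drug doses (not always all listed) in √10 steps, and values are medians of duplicate plates.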

NCI-H838 = tested on: NCI-H838
Outline: as §1

NCI-H2347 = tested on: NCI-H2347
Outline: as §1

NCI-H1915 = tested on: NCI-H1915
Outline: as §1

COR-L23 = tested on: COR-L23
Outline: as §1

NCI-H1437 = tested on: NCI-H1437
Outline: as §1

NCI-H661 = tested on: NCI-H661
Outline: as §1

NCI-H520 = tested on: NCI-H520
Outline: as §1

NCI-H2342 = tested on: NCI-H2342
Outline: as §1

NCI-H1651 = tested on: NCI-H1651
Outline: as §1

LCLC-97TM1 = tested on: LCLC-97TM1
Outline: as §1

PC-3 [JPC-3] = tested on: PC-3 [JPC-3]
Outline: as §1

NCI-H1993 = tested on: NCI-H1993
Outline: as §1

NCI-H441 = tested on: NCI-H441
Outline: as §1

CAL-12T = tested on: CAL-12T
Outline: as §1

NCI-H2009 = tested on: NCI-H2009
Outline: as §1

LXF-289 = tested on: LXF-289
Outline: as §1

A-427 = tested on: A-427
Outline: as §1

HOP-62 = tested on: HOP-62
Outline: as §1

NCI-H460 = tested on: NCI-H460
Outline: as §1

NCI-H522 = tested on: NCI-H522
Outline: as §1

NCI-H2023 = tested on: NCI-H2023
Outline: as §1

## C=C1C(=O)O[C@@H](CCCCCCCC)[C@@H]1C(=O)O [C-75] + CC(=O)Nc1cccc(-n2c(=O)n(C3CC3)c(=O)c3c(Nc4ccc(I)cc4F)n(C)c(=O)c(C)c32)c1 [Trametinib] (partner 0.02 µM)
COR-L 105; first compound 0.08 µM
  relative viability: 0.425
COR-L 105; first compound 0.253 µM
  relative viability: 0.458
COR-L 105; first compound 0.8 µM
  relative viability: 0.428
COR-L 105; first compound 2.53 µM
  relative viability: 0.427
COR-L 105; first compound 8 µM
  relative viability: 0.497
NCI-H838; first compound 0.08 µM
  relative viability: 0.524
NCI-H838; first compound 0.253 µM
  relative viability: 0.292
NCI-H838; first compound 0.8 µM
  relative viability: 0.456
NCI-H838; first compound 2.53 µM
  relative viability: 0.422
NCI-H838; first compound 8 µM
  relative viability: 0.388
NCI-H2347; first compound 0.08 µM
  relative viability: 0.296
NCI-H2347; first compound 0.253 µM
  relative viability: 0.193
NCI-H2347; first compound 0.8 µM
  relative viability: 0.317
NCI-H2347; first compound 2.53 µM
  relative viability: 0.26
NCI-H2347; first compound 8 µM
  relative viability: 0.365
NCI-H1915; first compound 0.08 µM
  relative viability: 0.323
NCI-H1915; first compound 0.253 µM
  relative viability: 0.288
NCI-H1915; first compound 0.8 µM
  relative viability: 0.32
NCI-H1915; first compound 2.53 µM
  relative viability: 0.273
NCI-H1915; first compound 8 µM
  relative viability: 0.359
COR-L23; first compound 0.08 µM
  relative viability: 0.636
COR-L23; first compound 0.253 µM
  relative viability: 0.58
COR-L23; first compound 0.8 µM
  relative viability: 0.562
COR-L23; first compound 2.53 µM
  relative viability: 0.485
COR-L23; first compound 8 µM
  relative viability: 0.569
NCI-H1437; first compound 0.08 µM
  relative viability: 0.514
NCI-H1437; first compound 0.253 µM
  relative viability: 0.699
NCI-H1437; first compound 0.8 µM
  relative viability: 0.454
NCI-H1437; first compound 8 µM
  relative viability: 0.586
NCI-H661; first compound 0.08 µM
  relative viability: 0.524
NCI-H661; first compound 0.253 µM
  relative viability: 0.612
NCI-H661; first compound 0.8 µM
  relative viability: 0.516
NCI-H661; first compound 2.53 µM
  relative viability: 0.429
NCI-H661; first compound 8 µM
  relative viability: 0.458
NCI-H520; first compound 0.08 µM
  relative viability: 0.689
NCI-H520; first compound 0.253 µM
  relative viability: 0.816
NCI-H520; first compound 0.8 µM
  relative viability: 0.593
NCI-H520; first compound 2.53 µM
  relative viability: 0.48
NCI-H520; first compound 8 µM
  relative viability: 0.533
NCI-H2342; first compound 0.08 µM
  relative viability: 0.956
NCI-H2342; first compound 0.253 µM
  relative viability: 0.813
NCI-H2342; first compound 0.8 µM
  relative viability: 0.687
NCI-H2342; first compound 2.53 µM
  relative viability: 0.65
NCI-H2342; first compound 8 µM
  relative viability: 0.917
NCI-H1651; first compound 0.08 µM
  relative viability: 0.815
NCI-H1651; first compound 0.253 µM
  relative viability: 0.802
NCI-H1651; first compound 0.8 µM
  relative viability: 0.862
NCI-H1651; first compound 2.53 µM
  relative viability: 0.515
NCI-H1651; first compound 8 µM
  relative viability: 0.892
LCLC-97TM1; first compound 0.08 µM
  relative viability: 0.211
LCLC-97TM1; first compound 0.253 µM
  relative viability: 0.162
LCLC-97TM1; first compound 0.8 µM
  relative viability: 0.193
LCLC-97TM1; first compound 2.53 µM
  relative viability: 0.175
LCLC-97TM1; first compound 8 µM
  relative viability: 0.177
PC-3 [JPC-3]; first compound 0.08 µM
  relative viability: 0.744
PC-3 [JPC-3]; first compound 0.253 µM
  relative viability: 0.651
PC-3 [JPC-3]; first compound 0.8 µM
  relative viability: 0.657
PC-3 [JPC-3]; first compound 2.53 µM
  relative viability: 0.64
PC-3 [JPC-3]; first compound 8 µM
  relative viability: 0.915
NCI-H1993; first compound 0.08 µM
  relative viability: 0.573
NCI-H1993; first compound 0.253 µM
  relative viability: 0.541
NCI-H1993; first compound 0.8 µM
  relative viability: 0.507
NCI-H1993; first compound 2.53 µM
  relative viability: 0.576
NCI-H1993; first compound 8 µM
  relative viability: 0.557
NCI-H441; first compound 0.08 µM
  relative viability: 0.569
NCI-H441; first compound 0.253 µM
  relative viability: 0.533
NCI-H441; first compound 0.8 µM
  relative viability: 0.406
NCI-H441; first compound 8 µM
  relative viability: 0.548
CAL-12T; first compound 0.08 µM
  relative viability: 0.373
CAL-12T; first compound 0.253 µM
  relative viability: 0.455
CAL-12T; first compound 0.8 µM
  relative viability: 0.31
CAL-12T; first compound 2.53 µM
  relative viability: 0.301
CAL-12T; first compound 8 µM
  relative viability: 0.313
NCI-H2009; first compound 0.08 µM
  relative viability: 0.277
NCI-H2009; first compound 0.253 µM
  relative viability: 0.249
NCI-H2009; first compound 0.8 µM
  relative viability: 0.282
NCI-H2009; first compound 2.53 µM
  relative viability: 0.262
NCI-H2009; first compound 8 µM
  relative viability: 0.332
LXF-289; first compound 0.08 µM
  relative viability: 0.646
LXF-289; first compound 0.253 µM
  relative viability: 0.683
LXF-289; first compound 0.8 µM
  relative viability: 0.657
LXF-289; first compound 2.53 µM
  relative viability: 0.664
LXF-289; first compound 8 µM
  relative viability: 0.672
A-427; first compound 0.08 µM
  relative viability: 0.78
A-427; first compound 0.253 µM
  relative viability: 0.84
A-427; first compound 0.8 µM
  relative viability: 0.655
A-427; first compound 2.53 µM
  relative viability: 0.665
A-427; first compound 8 µM
  relative viability: 0.701
HOP-62; first compound 0.08 µM
  relative viability: 0.354
HOP-62; first compound 0.253 µM
  relative viability: 0.43
HOP-62; first compound 0.8 µM
  relative viability: 0.358
HOP-62; first compound 2.53 µM
  relative viability: 0.321
HOP-62; first compound 8 µM
  relative viability: 0.359
NCI-H460; first compound 0.08 µM
  relative viability: 0.215
NCI-H460; first compound 0.253 µM
  relative viability: 0.178
NCI-H460; first compound 0.8 µM
  relative viability: 0.123
NCI-H460; first compound 2.53 µM
  relative viability: 0.104
NCI-H460; first compound 8 µM
  relative viability: 0.151
NCI-H522; first compound 0.08 µM
  relative viability: 0.784
NCI-H522; first compound 0.253 µM
  relative viability: 0.61
NCI-H522; first compound 0.8 µM
  relative viability: 0.747
NCI-H522; first compound 2.53 µM
  relative viability: 0.845
NCI-H522; first compound 8 µM
  relative viability: 0.604
NCI-H2023; first compound 0.08 µM
  relative viability: 0.527
NCI-H2023; first compound 0.253 µM
  relative viability: 0.662
NCI-H2023; first compound 0.8 µM
  relative viability: 0.531
NCI-H2023; first compound 2.53 µM
  relative viability: 0.209
NCI-H2023; first compound 8 µM
  relative viability: 0.483
